Bridge positions count the residues as written; N and C are the ends. Square brackets hold non-standard residues; d marks the D form. Peptide text beside a SMILES is read from it. Bip = N[C@@H](Cc1ccc(-c2ccccc2)cc1)C(=O)O; dBta = N[C@H](Cc1csc2ccccc12)C(=O)O; NMeA = CN[C@@H](C)C(=O)O; Orn = NCCC[C@H](N)C(=O)O; Dab = NCC[C@H](N)C(=O)O
Biological target: T1, PE-labeled human PD-L1-Ig binding to Jurkat cell line over-expressing human PD-1 (Jurkat-PD-1) (Homo sapiens, UniProt Q15116)
T1 construct: expressed in transfected cells; host or cells: Jurkat
T1 sequence (Q15116 25-288): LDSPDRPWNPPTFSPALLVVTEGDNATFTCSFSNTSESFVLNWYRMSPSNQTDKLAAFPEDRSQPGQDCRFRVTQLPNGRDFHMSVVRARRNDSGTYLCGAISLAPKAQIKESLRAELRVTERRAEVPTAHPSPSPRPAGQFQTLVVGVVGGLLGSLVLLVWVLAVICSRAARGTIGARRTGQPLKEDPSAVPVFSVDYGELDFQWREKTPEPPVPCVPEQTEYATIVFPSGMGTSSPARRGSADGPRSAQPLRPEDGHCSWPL
Experiment: Jurkat-PD-1 Cell Binding High-Content Screening Assay (CBA): Method 1
Conditions: Jurkat-hPD-1 cells, PE-labeled PD-L1-Ig 20 nM final; read-out: Jurkat HPDL1 PD1 IC50 (uM) (Method 1)

| IC50 | SMILES |
| --- | --- |
| 0.12 µM | CC(C)C[C@@H]1NC(=O)[C@H](CCCCN)NC(=O)[C@@H](CC(C)C)NC(=O)[C@H](C)N(C)C(=O)[C@H](CCCNC(=N)N)NC(=O)[C@H](Cc2ccc(-c3ccccc3)cc2)NC(=O)[C@H](C(C)C)NC(=O)[C@H](Cc2c[nH]c3ccccc23)NC(=O)[C@H](CC(=O)O)NC(=O)[C@H](Cc2ccc(O)cc2)NC(=O)[C@H](Cc2ccccc2)NC(=O)CSC[C@@H](C(=O)N[C@@H](CCC(=O)O)C(N)=O)NC(=O)[C@H]([C@@H](C)O)NC(=O)[C@H](C(C)C)NC1=O [Compound 1168] ({CH2CO}-FYDWV[Bip]R[NMeA][dL]KLVTCE-NH2; thioether N-14) |
| 0.05 µM | CC(C)C[C@@H]1NC(=O)[C@H](CCN)NC(=O)[C@@H](CC(C)C)NC(=O)[C@H](C)N(C)C(=O)[C@H](CCCNC(=N)N)NC(=O)[C@H](Cc2ccc(-c3ccccc3)cc2)NC(=O)[C@H](C(C)C)NC(=O)[C@H](Cc2c[nH]c3ccccc23)NC(=O)[C@H](CC(=O)O)NC(=O)[C@H](Cc2ccc(O)cc2)NC(=O)[C@H](Cc2ccccc2)NC(=O)CSC[C@@H](C(=O)N[C@H](C)C(N)=O)NC(=O)[C@H]([C@@H](C)O)NC(=O)[C@H](C(C)C)NC1=O [Compound 1170] ({CH2CO}-FYDWV[Bip]R[NMeA][dL][Dab]LVTC[dA]-NH2; thioether N-14) |
| 0.15 µM | CC(C)C[C@@H]1NC(=O)[C@H](CCCN)NC(=O)[C@@H](Cc2csc3ccccc23)NC(=O)[C@H](C)N(C)C(=O)[C@H](CCCNC(=N)N)NC(=O)[C@H](Cc2ccc(-c3ccccc3)cc2)NC(=O)[C@H](C(C)C)NC(=O)[C@H](Cc2c[nH]c3ccccc23)NC(=O)[C@H](CC(=O)O)NC(=O)[C@H](Cc2ccc(O)cc2)NC(=O)[C@H](Cc2ccccc2)NC(=O)CSC[C@@H](C(=O)N[C@@H](C)C(N)=O)NC(=O)[C@H]([C@@H](C)O)NC(=O)[C@H](C(C)C)NC1=O [Compound 1171] ({CH2CO}-FYDWV[Bip]R[NMeA][dBta][Orn]LVTCA-NH2; thioether N-14) |
| 0.29 µM | CC(C)C[C@@H]1NC(=O)[C@H](CCN)NC(=O)[C@@H](CC(C)C)NC(=O)[C@H](C)N(C)C(=O)[C@H](CCCNC(=N)N)NC(=O)[C@H](Cc2ccc(-c3ccccc3)cc2)NC(=O)[C@H](C(C)C)NC(=O)[C@H](Cc2c[nH]c3ccccc23)NC(=O)[C@H](CC(=O)O)NC(=O)[C@H](Cc2ccc(O)cc2)NC(=O)[C@H](CC(N)=O)NC(=O)CSC[C@@H](C(=O)N[C@@H](CCC(=O)O)C(N)=O)NC(=O)[C@H]([C@@H](C)O)NC(=O)[C@H](C(C)C)NC1=O [Compound 1172] ({CH2CO}-NYDWV[Bip]R[NMeA][dL][Dab]LVTCE-NH2; thioether N-14) |
| 0.22 µM | CC(C)C[C@@H]1NC(=O)[C@H](CCCCN)NC(=O)[C@@H](CC(C)C)NC(=O)[C@H](C)N(C)C(=O)[C@H](CCCNC(=N)N)NC(=O)[C@H](Cc2ccc(-c3ccccc3)cc2)NC(=O)[C@H](C(C)C)NC(=O)[C@H](Cc2c[nH]c3ccccc23)NC(=O)[C@H](CC(=O)O)NC(=O)[C@H](Cc2ccc(O)cc2)NC(=O)[C@H](CC(N)=O)NC(=O)CSC[C@@H](C(=O)N[C@@H](CCC(=O)O)C(N)=O)NC(=O)[C@H]([C@@H](C)O)NC(=O)[C@H](C(C)C)NC1=O [Compound 1173] ({CH2CO}-NYDWV[Bip]R[NMeA][dL]KLVTCE-NH2; thioether N-14) |
| 0.06 µM | CC(C)C[C@@H]1NC(=O)[C@H](CCCCN)NC(=O)[C@@H](CC(C)C)NC(=O)[C@H](C)N(C)C(=O)[C@H](CCCNC(=N)N)NC(=O)[C@H](Cc2ccc(-c3ccccc3)cc2)NC(=O)[C@H](C(C)C)NC(=O)[C@H](Cc2c[nH]c3ccccc23)NC(=O)[C@H](CC(=O)O)NC(=O)[C@H](Cc2ccc(O)cc2)NC(=O)[C@H](CC(N)=O)NC(=O)CSC[C@@H](C(=O)N[C@@H](CO)C(N)=O)NC(=O)[C@H]([C@@H](C)O)NC(=O)[C@H](C(C)C)NC1=O [Compound 1174] ({CH2CO}-NYDWV[Bip]R[NMeA][dL]KLVTCS-NH2; thioether N-14) |
| 0.12 µM | CC(C)C[C@@H]1NC(=O)[C@H](CCN)NC(=O)[C@@H](CC(C)C)NC(=O)[C@H](C)N(C)C(=O)[C@H](CCCNC(=N)N)NC(=O)[C@H](Cc2ccc(-c3ccccc3)cc2)NC(=O)[C@H](C(C)C)NC(=O)[C@H](Cc2c[nH]c3ccccc23)NC(=O)[C@H](CC(=O)O)NC(=O)[C@H](Cc2ccc(O)cc2)NC(=O)[C@H](Cc2ccccc2)NC(=O)CSC[C@@H](C(=O)N[C@@H](CCC(=O)O)C(N)=O)NC(=O)[C@H]([C@@H](C)O)NC(=O)[C@H](C(C)C)NC1=O [Compound 1175] ({CH2CO}-FYDWV[Bip]R[NMeA][dL][Dab]LVTCE-NH2; thioether N-14) |
| 0.07 µM | CC(C)C[C@@H]1NC(=O)[C@H](CCCN)NC(=O)[C@@H](CC(C)C)NC(=O)[C@H](C)N(C)C(=O)[C@H](CCCNC(=N)N)NC(=O)[C@H](Cc2ccc(-c3ccccc3)cc2)NC(=O)[C@H](C(C)C)NC(=O)[C@H](Cc2c[nH]c3ccccc23)NC(=O)[C@H](CC(=O)O)NC(=O)[C@H](Cc2ccc(O)cc2)NC(=O)[C@H](Cc2ccccc2)NC(=O)CSC[C@@H](C(=O)N[C@@H](CO)C(N)=O)NC(=O)[C@H]([C@@H](C)O)NC(=O)[C@H](C(C)C)NC1=O [Compound 1176] ({CH2CO}-FYDWV[Bip]R[NMeA][dL][Orn]LVTCS-NH2; thioether N-14) |
| 0.12 µM | CC(C)C[C@@H]1NC(=O)[C@H](CCCN)NC(=O)[C@@H](CC(C)C)NC(=O)[C@H](C)N(C)C(=O)[C@H](CCCNC(=N)N)NC(=O)[C@H](Cc2ccc(-c3ccccc3)cc2)NC(=O)[C@H](C(C)C)NC(=O)[C@H](Cc2c[nH]c3ccccc23)NC(=O)[C@H](CC(=O)O)NC(=O)[C@H](Cc2ccc(O)cc2)NC(=O)[C@H](CC(N)=O)NC(=O)CSC[C@@H](C(=O)N[C@@H](CO)C(N)=O)NC(=O)[C@H]([C@@H](C)O)NC(=O)[C@H](C(C)C)NC1=O [Compound 1177] ({CH2CO}-NYDWV[Bip]R[NMeA][dL][Orn]LVTCS-NH2; thioether N-14) |
| 0.05 µM | CC(C)C[C@@H]1NC(=O)[C@H](CCN)NC(=O)[C@@H](CC(C)C)NC(=O)[C@H](C)N(C)C(=O)[C@H](CCCNC(=N)N)NC(=O)[C@H](Cc2ccc(-c3ccccc3)cc2)NC(=O)[C@H](C(C)C)NC(=O)[C@H](Cc2c[nH]c3ccccc23)NC(=O)[C@H](CC(=O)O)NC(=O)[C@H](Cc2ccc(O)cc2)NC(=O)[C@H](Cc2ccccc2)NC(=O)CSC[C@@H](C(=O)N[C@@H](CO)C(N)=O)NC(=O)[C@H]([C@@H](C)O)NC(=O)[C@H](C(C)C)NC1=O [Compound 1178] ({CH2CO}-FYDWV[Bip]R[NMeA][dL][Dab]LVTCS-NH2; thioether N-14) |
| 0.07 µM | CC(C)C[C@@H]1NC(=O)[C@H](CCN)NC(=O)[C@@H](CC(C)C)NC(=O)[C@H](C)N(C)C(=O)[C@H](CCCNC(=N)N)NC(=O)[C@H](Cc2ccc(-c3ccccc3)cc2)NC(=O)[C@H](C(C)C)NC(=O)[C@H](Cc2c[nH]c3ccccc23)NC(=O)[C@H](CC(=O)O)NC(=O)[C@H](Cc2ccc(O)cc2)NC(=O)[C@H](CC(N)=O)NC(=O)CSC[C@@H](C(=O)N[C@@H](CO)C(N)=O)NC(=O)[C@H]([C@@H](C)O)NC(=O)[C@H](C(C)C)NC1=O [Compound 1179] ({CH2CO}-NYDWV[Bip]R[NMeA][dL][Dab]LVTCS-NH2; thioether N-14) |

From patent US20240409585A1, “MACROCYCLIC IMMUNOMODULATORS” (priority 2021, published 2024)
